Assay results from patent US20030216471A1, “Retinoid formulations for aerosolization and inhalation” (priority 2003, published 2003).
Several values for one entry are separate records, joined by “and”; a condition that tells them apart may be missing. Equal values may be shown once.

System: TGase II
Assay: TGase II assay of rat lung tissue after inhaled 13-cis RA (experiment B)
Format: in vivo
Procedure: Male rats (n=23) (Sprague-Dawley from Charles River) were divided into six experimental groups and were given varying amounts of 13-cis RA through an inhalant apparatus once daily for different times each day for 14 days. The experimental groups were as follows (Table 1): 1. Vehicle control: rats (3) inhaled vehicle for 240 minutes; 2. Low dose 13-cis RA: rats (4) inhaled a solution containing 13-cis RA at a concentration of 62.2 μg/liter (inhaled dose 115.0 μg/kg body weight) in 5 minutes; 3. Low-Middle dose 13-cis RA: rats (4) inhaled a solution containing 13-cis RA at a concentration of 62.2 μg/liter (inhaled dose 334.4 μg/kg body weight) in 15 minutes; 4.Middle dose 13-cis RA: rats (4) inhaled a solution containing 13-cis RA at a concentration of 62.2 μg/liter (inhaled dose 1012.3 μg/kg body weight) in 45 minutes; 5. Middle-High dose 13-cis RA: rats (4) inhaled a solution containing 13-cis RA at a concentration of 62.2 μg/liter (inhaled dose 2843.4 μg/kg body weight) in 120 minutes; 6. High dose 13-cis RA:rats (4) inhaled a solution containing 13-cis RA at a concentration of 62.2 μg/liter (inhaled dose 5935.6 μg/kg body weight) in 240 minutes.
Enzyme assay mixtures were prepared by adding 80 μl of SUBSTRATE mixture (322.8 μl H2O, 120 μl 0.5M NaBorate, 60 μl 0.01M EDTA, 60 μl 0.1M CaCl2, 6 μl 1M DTT, 240 μl dimethyl casein, 30 μl Triton X-100, 1.21 μl [^3H]-Putrescine, 120 μl Putrescine) to 20 μl sample, 20 μl scraping buffer for blank control, 20 μl (18 μl scraping buffer+2 μl TGase II) for positive control. Samples were mixed in 15 ml tubes, the tubes were shaken before putting them into a 28° C. water bath for 30 minutes. Reactions were slowed down in an ice bath. 80 μl of the incubation mixture was adsorbed onto paper disks. These were immediately dropped into cold 10% TCA (0.1% Putrescine) and washed with agitation for 7 minutes, followed by 2 additional washes with 5% TCA (0.05% putrescine) for 5-7 minutes, and once more with cold (−20° C.) 95% ethanol for 5 minutes. Paper disks were dried and placed into 5 ml Aquasol, and counted in a Liquid Scintillation Counter. Protein concentration determination was conducted by the Bradford method.
Cannon (Cannon et al., 1983).

CC1=C(/C=C/C(C)=C/C=C/C(C)=C\C(=O)O)C(C)(C)CCC1 [13-cis RA, 13-cis-Retinoic Acid]
TGase II assay, rat lung (High dose, 240 min daily, 14 days): 8053 DPM/μg protein
TGase II assay, rat lung (High dose: 1872 μg/kg total deposited, 240 min daily, 14 days): 0.1025+/−0.004 picomoles/μg protein/30 min and 0.1025 ± 0.004 picomoles/μg protein/30 min
TGase II assay, rat lung (Low dose, 5 min daily, 14 days, vehicle 3535): 7503 DPM/μg protein
TGase II assay, rat lung (Low dose: 39 μg/kg total deposited, 5 min daily, 14 days, vehicle 0.0450): 0.0955+/−0.004 picomoles/μg protein/30 min and 0.0955 ± 0.004 picomoles/μg protein/30 min
TGase II assay, rat lung (Low-Middle dose, 15 min daily, 14 days): 9035 DPM/μg protein
TGase II assay, rat lung (Low-Middle dose: 117 μg/kg total deposited, 15 min daily, 14 days): 0.1150+/−0.006 picomoles/μg protein/30 min and 0.1150 ± 0.006 picomoles/μg protein/30 min
TGase II assay, rat lung (Middle dose, 45 min daily, 14 days): 10449 DPM/μg protein
TGase II assay, rat lung (Middle dose: 351 μg/kg total deposited, 45 min daily, 14 days): 0.1330+/−0.009 picomoles/μg protein/30 min and 0.1330 ± 0.009 picomoles/μg protein/30 min
TGase II assay, rat lung (Middle-High dose, 120 min daily, 14 days): 8014 DPM/μg protein
TGase II assay, rat lung (Middle-High dose: 936 μg/kg total deposited, 120 min daily, 14 days): 0.1020+/−0.005 picomoles/μg protein/30 min and 0.1020 ± 0.005 picomoles/μg protein/30 min
stimulation of lung TGase activity (maximum, inhaled dose 1012.3 μg/kg (45 minutes of inhalation), 14 days): 2.9 Fold
stimulation of lung TGase activity (with larger amounts of inhaled retinoid): 1.2 fold
